From PubChem BioAssay (NCI)
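Method: 48-hour compound exposure of cells in 96-well plates, five concentrations, linear interpolation of endpoints. At the GI50, growth is halved. TGI marks complete inhibition of growth.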

Key:
Assay in all cases: inhibition of tumour cell growth, NCI panel, 48 h
786-0 renal = test system: 786-0 renal
A498 renal = test system: A498 renal
ACHN renal = test system: ACHN renal
CCRF-CEM leukemia = test system: CCRF-CEM leukemia
COLO 205 colon = test system: COLO 205 colon
DU-145 prostate = test system: DU-145 prostate
EKVX NSCLC = test system: EKVX NSCLC
HCT-15 colon = test system: HCT-15 colon
HOP-92 NSCLC = test system: HOP-92 NSCLC
HS 578T breast = test system: HS 578T breast
HT29 colon = test system: HT29 colon
KM12 colon = test system: KM12 colon
M14 melanoma = test system: M14 melanoma
MALME-3M melanoma = test system: MALME-3M melanoma
MDA-MB-435 = test system: MDA-MB-435
MOLT-4 leukemia = test system: MOLT-4 leukemia
NCI-H23 lung = test system: NCI-H23 lung
NCI-H460 lung = test system: NCI-H460 lung
NCI/ADR-RES ovarian = test system: NCI/ADR-RES ovarian
OVCAR-4 ovarian = test system: OVCAR-4 ovarian
OVCAR-5 ovarian = test system: OVCAR-5 ovarian
PC-3 prostate = test system: PC-3 prostate
RPMI-8226 leukemia = test system: RPMI-8226 leukemia
RXF 393 renal = test system: RXF 393 renal
SF-268 CNS = test system: SF-268 CNS
SF-539 CNS = test system: SF-539 CNS
SK-MEL-2 melanoma = test system: SK-MEL-2 melanoma
SK-MEL-28 melanoma = test system: SK-MEL-28 melanoma
SK-OV-3 ovarian = test system: SK-OV-3 ovarian
SN12C renal = test system: SN12C renal
SNB-75 CNS = test system: SNB-75 CNS
SW-620 colon = test system: SW-620 colon
TK-10 renal = test system: TK-10 renal
UACC-257 melanoma = test system: UACC-257 melanoma
UACC-62 melanoma = test system: UACC-62 melanoma
UO-31 renal = test system: UO-31 renal
A549 NSCLC = test system: A549 NSCLC
BT-549 breast = test system: BT-549 breast
CAKI-1 renal = test system: CAKI-1 renal
HCC-2998 colon = test system: HCC-2998 colon
HCT-116 colon = test system: HCT-116 colon
HL-60(TB) leukemia = test system: HL-60(TB) leukemia
HOP-62 NSCLC = test system: HOP-62 NSCLC
IGROV1 ovarian = test system: IGROV1 ovarian
K-562 leukemia = test system: K-562 leukemia
LOX IMVI melanoma = test system: LOX IMVI melanoma
MCF7 breast = test system: MCF7 breast
MDA-MB-231 breast = test system: MDA-MB-231 breast
NCI-H226 lung = test system: NCI-H226 lung
OVCAR-3 ovarian = test system: OVCAR-3 ovarian
OVCAR-8 ovarian = test system: OVCAR-8 ovarian
SF-295 CNS = test system: SF-295 CNS
SK-MEL-5 melanoma = test system: SK-MEL-5 melanoma
SNB-19 CNS = test system: SNB-19 CNS
SR leukemia = test system: SR leukemia
T-47D breast = test system: T-47D breast
U251 CNS = test system: U251 CNS

Compound: NC(N)=Nc1ccc(Oc2ccc(Nc3ccc(Cl)c(C(F)(F)F)c3)cc2)cc1
- GI50 (786-0 renal): 1.74 µM
- TGI (786-0 renal): 3.29 µM
- GI50 (A498 renal): 1.28 µM
- TGI (A498 renal): 2.55 µM
- GI50 (ACHN renal): 1.8 µM
- TGI (ACHN renal): 3.24 µM
- GI50 (CCRF-CEM leukemia): 2.21 µM
- TGI (CCRF-CEM leukemia): 6.91 µM
- GI50 (COLO 205 colon): 1.73 µM
- TGI (COLO 205 colon): 3.48 µM
- GI50 (DU-145 prostate): 1.74 µM
- TGI (DU-145 prostate): 3.16 µM
- GI50 (EKVX NSCLC): 1.76 µM
- TGI (EKVX NSCLC): 3.56 µM
- GI50 (HCT-15 colon): 1.94 µM
- TGI (HCT-15 colon): 4.23 µM
- GI50 (HOP-92 NSCLC): 1.38 µM
- TGI (HOP-92 NSCLC): 2.8 µM
- GI50 (HS 578T breast): 1.9 µM
- TGI (HS 578T breast): 4.64 µM
- GI50 (HT29 colon): 1.6 µM
- TGI (HT29 colon): 3.09 µM
- GI50 (KM12 colon): 1.65 µM
- TGI (KM12 colon): 3.11 µM
- GI50 (M14 melanoma): 1.65 µM
- TGI (M14 melanoma): 3.22 µM
- GI50 (MALME-3M melanoma): 1.79 µM
- TGI (MALME-3M melanoma): 3.99 µM
- GI50 (MDA-MB-435): 1.59 µM
- TGI (MDA-MB-435): 3.02 µM
- GI50 (MOLT-4 leukemia): 1.83 µM
- TGI (MOLT-4 leukemia): 4.62 µM
- GI50 (NCI-H23 lung): 1.64 µM
- TGI (NCI-H23 lung): 3.15 µM
- GI50 (NCI-H460 lung): 1.78 µM
- TGI (NCI-H460 lung): 3.32 µM
- GI50 (NCI/ADR-RES ovarian): 10.4 µM
- TGI (NCI/ADR-RES ovarian): 27.7 µM
- GI50 (OVCAR-4 ovarian): 1.73 µM
- TGI (OVCAR-4 ovarian): 3.27 µM
- GI50 (OVCAR-5 ovarian): 1.71 µM
- TGI (OVCAR-5 ovarian): 3.15 µM
- GI50 (PC-3 prostate): 1.51 µM
- TGI (PC-3 prostate): 3.01 µM
- GI50 (RPMI-8226 leukemia): 2.46 µM
- TGI (RPMI-8226 leukemia): 6.97 µM
- GI50 (RXF 393 renal): 1.58 µM
- TGI (RXF 393 renal): 3.04 µM
- GI50 (SF-268 CNS): 1.62 µM
- TGI (SF-268 CNS): 3.39 µM
- GI50 (SF-539 CNS): 1.69 µM
- TGI (SF-539 CNS): 3.19 µM
- GI50 (SK-MEL-2 melanoma): 1.76 µM
- TGI (SK-MEL-2 melanoma): 3.2 µM
- GI50 (SK-MEL-28 melanoma): 1.64 µM
- TGI (SK-MEL-28 melanoma): 3.05 µM
- GI50 (SK-OV-3 ovarian): 2.18 µM
- TGI (SK-OV-3 ovarian): 5.07 µM
- GI50 (SN12C renal): 1.66 µM
- TGI (SN12C renal): 3.19 µM
- GI50 (SNB-75 CNS): 1.26 µM
- TGI (SNB-75 CNS): 2.61 µM
- GI50 (SW-620 colon): 1.7 µM
- TGI (SW-620 colon): 3.25 µM
- GI50 (TK-10 renal): 1.82 µM
- TGI (TK-10 renal): 3.42 µM
- GI50 (UACC-257 melanoma): 1.64 µM
- TGI (UACC-257 melanoma): 3.26 µM
- GI50 (UACC-62 melanoma): 1.7 µM
- TGI (UACC-62 melanoma): 3.27 µM
- GI50 (UO-31 renal): 1.84 µM
- TGI (UO-31 renal): 4.51 µM

Compound: CC(C)(C)c1ccc(C(=O)Nc2sc3c(c2C(N)=O)CC/C(=N\O)C3)cc1
- GI50 (786-0 renal): 3.81 µM
- TGI (786-0 renal): 23 µM
- GI50 (A498 renal): 2.09 µM
- TGI (A498 renal): 8.85 µM
- GI50 (A549 NSCLC): 3.44 µM
- TGI (A549 NSCLC): 56.6 µM
- GI50 (ACHN renal): 1.55 µM
- TGI (ACHN renal): 9.21 µM
- GI50 (BT-549 breast): 1.06 µM
- TGI (BT-549 breast): 8.1 µM
- GI50 (CAKI-1 renal): 0.756 µM
- TGI (CAKI-1 renal): 10.6 µM
- GI50 (CCRF-CEM leukemia): 0.505 µM
- TGI (CCRF-CEM leukemia): 9.71 µM
- GI50 (COLO 205 colon): 3.39 µM
- TGI (COLO 205 colon): 15.7 µM
- GI50 (DU-145 prostate): 4.21 µM
- TGI (DU-145 prostate): 16.7 µM
- GI50 (EKVX NSCLC): 3.77 µM
- TGI (EKVX NSCLC): 19.2 µM
- GI50 (HCC-2998 colon): 4.79 µM
- TGI (HCC-2998 colon): 22.3 µM
- GI50 (HCT-116 colon): 1.5 µM
- TGI (HCT-116 colon): 12.6 µM
- GI50 (HCT-15 colon): 1.48 µM
- TGI (HCT-15 colon): 14.5 µM
- GI50 (HL-60(TB) leukemia): 0.675 µM
- TGI (HL-60(TB) leukemia): 5.64 µM
- GI50 (HOP-62 NSCLC): 4.91 µM
- TGI (HOP-62 NSCLC): 20.8 µM
- GI50 (HOP-92 NSCLC): 2.43 µM
- TGI (HOP-92 NSCLC): 6.86 µM
- GI50 (HS 578T breast): 4.66 µM
- TGI (HS 578T breast): 58 µM
- GI50 (HT29 colon): 2.68 µM
- TGI (HT29 colon): 19.9 µM
- GI50 (IGROV1 ovarian): 3.55 µM
- TGI (IGROV1 ovarian): 32 µM
- GI50 (K-562 leukemia): 0.597 µM
- TGI (K-562 leukemia): 5.82 µM
- GI50 (KM12 colon): 2.85 µM
- TGI (KM12 colon): 13.5 µM
- GI50 (LOX IMVI melanoma): 1.61 µM
- TGI (LOX IMVI melanoma): 4.35 µM
- GI50 (M14 melanoma): 2.83 µM
- TGI (M14 melanoma): 14.2 µM
- GI50 (MALME-3M melanoma): 2.36 µM
- TGI (MALME-3M melanoma): 6.53 µM
- GI50 (MCF7 breast): 2.68 µM
- TGI (MCF7 breast): 43.1 µM
- GI50 (MDA-MB-231 breast): 3.04 µM
- TGI (MDA-MB-231 breast): 9.11 µM
- GI50 (MDA-MB-435): 3.01 µM
- TGI (MDA-MB-435): 10.2 µM
- GI50 (MOLT-4 leukemia): 2.09 µM
- TGI (MOLT-4 leukemia): 10.6 µM
- GI50 (NCI-H226 lung): 2.36 µM
- TGI (NCI-H226 lung): 9.9 µM
- GI50 (NCI-H23 lung): 2.51 µM
- TGI (NCI-H23 lung): 13.4 µM
- GI50 (NCI-H460 lung): 3.06 µM
- TGI (NCI-H460 lung): 10.1 µM
- GI50 (NCI/ADR-RES ovarian): 2.87 µM
- TGI (NCI/ADR-RES ovarian): 18.6 µM
- GI50 (OVCAR-3 ovarian): 3.18 µM
- TGI (OVCAR-3 ovarian): 13.6 µM
- GI50 (OVCAR-4 ovarian): 1.12 µM
- TGI (OVCAR-4 ovarian): 14.2 µM
- GI50 (OVCAR-5 ovarian): 3.43 µM
- TGI (OVCAR-5 ovarian): 14.3 µM
- GI50 (OVCAR-8 ovarian): 3.88 µM
- TGI (OVCAR-8 ovarian): 20.2 µM
- GI50 (PC-3 prostate): 1.31 µM
- TGI (PC-3 prostate): 18.6 µM
- GI50 (RPMI-8226 leukemia): 1.04 µM
- TGI (RPMI-8226 leukemia): 4.92 µM
- GI50 (RXF 393 renal): 0.544 µM
- TGI (RXF 393 renal): 3.11 µM
- GI50 (SF-268 CNS): 5.38 µM
- TGI (SF-268 CNS): 24.7 µM
- GI50 (SF-295 CNS): 3.96 µM
- TGI (SF-295 CNS): 14.8 µM
- GI50 (SF-539 CNS): 2.39 µM
- TGI (SF-539 CNS): 6.39 µM
- GI50 (SK-MEL-2 melanoma): 2.69 µM
- TGI (SK-MEL-2 melanoma): 7.01 µM
- GI50 (SK-MEL-28 melanoma): 3.47 µM
- TGI (SK-MEL-28 melanoma): 12.4 µM
- GI50 (SK-MEL-5 melanoma): 2 µM
- TGI (SK-MEL-5 melanoma): 4.21 µM
- GI50 (SK-OV-3 ovarian): 3.53 µM
- TGI (SK-OV-3 ovarian): 19.2 µM
- GI50 (SN12C renal): 3.2 µM
- TGI (SN12C renal): 12.2 µM
- GI50 (SNB-19 CNS): 4.18 µM
- TGI (SNB-19 CNS): 18.4 µM
- GI50 (SNB-75 CNS): 3.65 µM
- TGI (SNB-75 CNS): 14.9 µM
- GI50 (SR leukemia): 1.36 µM
- TGI (SR leukemia): 6.36 µM
- GI50 (SW-620 colon): 1.93 µM
- TGI (SW-620 colon): 17.4 µM
- GI50 (T-47D breast): 0.739 µM
- TGI (T-47D breast): 8.06 µM
- GI50 (TK-10 renal): 5.81 µM
- TGI (TK-10 renal): 53.9 µM
- GI50 (U251 CNS): 3.66 µM
- TGI (U251 CNS): 28.2 µM
- GI50 (UACC-257 melanoma): 3.27 µM
- TGI (UACC-257 melanoma): 11.7 µM
- GI50 (UACC-62 melanoma): 1.95 µM
- TGI (UACC-62 melanoma): 8.99 µM
